# Where two headings read alike, the source gives them in different places.
# How the values were obtained:
# [1] = cited from earlier work
# [2] = tested on: MX-1 human breast carcinoma; experiment: MX-1 human breast carcinoma xenograft (s.c.), efficacy and toxicity; format: in vivo, nude mice
# Procedure: Tumor Models. […] Human MX-1 and LX-1 cell lines were obtained from the DCTD Tumor Repository in Frederick, Md. These cell lines were received as tumor fragments and were propagated in NCr nude mice by serial transplantation of 3×3 mm fragments. Experiments were not initiated until the cell lines had been through 3 passages in nude mice and the tumor lines were restarted when the passage number reached 10.
# Efficacy Studies. […] For the MX-1 and LX-1 tumor models, tumor volume was determined by repeated perpendicular measurements of tumor dimensions and using the formula: Volume (mm^3)=(L×W^2)/2
# [3] = Pharmacokinetic and in vivo leakage studies; details: plasma, ICR mice; for AUC / Cmax / clearance: mouse, iv
# Procedure: 5. Pharmacokinetic and in vivo leakage studies. […] Two different drug-to-lipid ratios, i.e., 0.10 (w/w) and 0.02 (w/w), were used to examine the influence of drug-to-lipid ratio and lipid dose on drug leakage and PK behavior. Encapsulated topotecan was administered at 1 mg/kg (10 or 50 mg/kg lipid) and 5 mg/kg topotecan (50 mg/kg lipid). […] Total topotecan in blood was determined by a fluorescence assay preceded by precipitation of plasma proteins. Topotecan was quantified by spectrofluorimetry at an excitation (2.5 nm slit width) and emission wavelength (2.5 nm slit width) of 380 and 518 nm, respectively. Lipid levels in plasma were determined by liquid scintillation counting of the [^3H]-CHE label.
# [4] = tested on: LX-1 human lung carcinoma; experiment: LX-1 human lung carcinoma xenograft (s.c.), efficacy and toxicity; format: in vivo, nude mice; details: LX-1, single dose; free at evaluated doses <30 mg/kg
# Description: In the above formula, MTD is the maximum tolerated dose, defined as that dose that causes a mean weight loss of 20% in a group of animals; and MED is the minimal effective dose, defined as the dose that produces an optimal % T/C value of ≦40 in the solid tumor models or an % ILS of 50±10% in the survival models.
# [5] = Myelosuppression and neutropenia studies (blood CBC and differential); format: in vivo, ICR mice; details: 10 mg/kg i.v., day 3
# Procedure: Myelosuppression and neutropenia studies. […] Empty vesicles were administered as a control. CBC and differential analysis was performed at Central Labs for Veterinarians (Langley, BC) to quantify cellular levels, ratios and morphology.
# [6] = MX-1 s.c., single i.v. dose 5 mg/kg
smiles,measurement,setting,value
"CC[C@@]1(O)C(=O)OCc2c1cc1n(c2=O)Cc2cc3c(CN(C)C)c(O)ccc3nc2-1 [Free, 9-dimethylaminomethyl-10-hydroxy-camptothecin]",LD10,"[1]; qdx5 schedule, converted",~4.7 mg/kg/dose
same,LD10,[1]; single intravenous infusion in mice (Hycamtin product monograph),75 mg/M^2
same,LD10,"[1]; single intravenous infusion in mice, converted",~25 mg/kg
same,anti-tumor activity,"[2]; MX-1, q7dx3, 5 or 10 mg/kg/dose",little activity
same,"% T/C (optimal, following final treatment)","[2]; MX-1 s.c., q7dx3, 10 mg/kg/dose i.v.",61%
same,"% T/C (optimal, following final treatment)",[2]; [6],78%
same,T − C (tumor growth delay to 500 mm^3),[2]; [6],0.2 days
same,"% T/C (optimal, following final treatment)","[2]; MX-1 s.c., single i.v. dose 40 mg/kg",24%
same,AUC,[3]; 1 mg/kg i.v.,1970 ng·h/mL
same,Cmax,[3]; 1 mg/kg i.v.,750 ng/mL
same,clearance,[3]; 1 mg/kg i.v.,0.232 mL/min
same,AUC,[3]; 5 mg/kg i.v.,2770 ng·h/mL
same,Cmax,[3]; 5 mg/kg i.v.,2170 ng/mL
same,clearance,[3]; 5 mg/kg i.v.,0.827 mL/min
same,α1/2,[3]; 1 mg/kg i.v.,0.14 h
same,α1/2,[3]; 5 mg/kg i.v.,0.26 h
same,anti-tumor activity in initial single dose studies,[4],inactive
same,"differences in neutrophil, WBC and lymphocyte parameters",[5],No significant differences

# Reference: patent publication US20060269594A1, “Liposomal antineoplastic drugs and uses thereof” (Inex Pharmaceuticals Corporation, priority 2000, published 2006)
